Measured values published in PubChem BioAssay (NCI).
“And” between values parts separate entries of the source, which are not always exact repeats. Equal entries are not always repeated.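 Results reflect a 48-hour exposure of cells in 96-well plates to compound at five concentrations. GI50: concentration for 50% inhibition of growth. At the TGI there is no net growth.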

How the values were obtained:
Test in all cases: NCI-60 cell line screen, 48 h
[1] = test system: KM12 colon
[2] = test system: NCI/ADR-RES ovarian
[3] = test system: SN12C renal
[4] = test system: MDA-N
[5] = test system: OVCAR-5 ovarian
[6] = test system: MDA-MB-231 breast
[7] = test system: SW-620 colon
[8] = test system: PC-3 prostate
[9] = test system: DU-145 prostate
[10] = test system: A498 renal
[11] = test system: HCT-116 colon
[12] = test system: UACC-257 melanoma

Compound	TGI [1] [µM]	TGI [2] [µM]	TGI [3]	TGI [4]	TGI [5]	TGI [6]	TGI [7]	TGI [8]	TGI [9]	TGI [10]	TGI [11]	TGI [12]	GI50 [2] [µM]	GI50 [3]	GI50 [5]	GI50 [6]	GI50 [7]	GI50 [9]	GI50 [10]
Nc1nc(Cl)cc(NCC2(CO)CC(c3ccccc3)C2)n1 (stereo not drawn)	> 100	92.2	> 100 µM	> 100 µM	> 100 µM	> 100 µM	> 100 µM	> 100 µM	> 100 µM	> 100 µM	> 100 µM	> 100 µM							
[O-]/N=N\c1on[n+](CCc2ccccc2)c1Cc1c(/N=N/[O-])on[n+]1CCc1ccccc1	> 100	> 100	> 100 µM	> 100 µM	> 100 µM	88.6 µM	> 100 µM	> 100 µM	> 100 µM	> 100 µM	> 100 µM	> 100 µM							
CCOC(=O)C(Cc1ccc2c(c1)CCC2)Cc1ccc2c(c1)CCC2		> 100		> 100 µM	> 100 µM	> 100 µM	> 100 µM	> 100 µM	> 100 µM	> 100 µM	> 100 µM	> 100 µM							
CC(=O)[C@H]1[C@@H](OCc2ccccc2)O[N+]([O-])=C(C)[C@@H]1c1ccccc1	> 100	> 100		> 100 µM	> 100 µM	> 100 µM	31.7 µM	> 100 µM	> 100 µM	> 100 µM		> 100 µM							
CC12OC3(C(O)C1O)C(C(=O)O[C@H]3CO[Si](C)(C)C(C)(C)C)C2S(=O)(=O)c1ccccc1 (stereo partly drawn)	> 100	30.4	> 100 µM	> 100 µM	> 100 µM	> 100 µM	> 100 µM	96.3 µM	> 100 µM	> 100 µM	> 100 µM	69 µM							
COC(=O)C(=O)c1cc2ccccc2n1S(=O)(=O)c1ccccc1	> 100	> 100	> 100 µM	> 100 µM	> 100 µM	> 100 µM	> 100 µM	> 100 µM	> 100 µM	> 100 µM	> 100 µM	> 100 µM							
CC(C)[Si](Oc1cc2c3c(ccc2c(O)c1[C@@H](C)CO[Si](C)(C)C(C)(C)C)C(C)(C)CCC3)(C(C)C)C(C)C	> 100	> 100	> 100 µM	> 100 µM	> 100 µM	> 100 µM	> 100 µM	> 100 µM	> 100 µM	> 100 µM	> 100 µM	> 100 µM							
Nc1ncnc2c1ccn2CC=C(CO)CO	> 100	> 100	> 100 µM	> 100 µM	> 100 µM	> 100 µM	> 100 µM	> 100 µM	> 100 µM	> 100 µM	> 100 µM	> 100 µM							
COC(=N)c1ncn(Cc2ccccc2)c1N	> 100	> 100	> 100 µM	> 100 µM	> 100 µM	> 100 µM	> 100 µM	> 100 µM	> 100 µM	> 100 µM	> 100 µM	> 100 µM							
Cn1c2c(c3ccccc31)CC(=O)N1CCCC(C1)CC21OCCO1 (stereo not drawn)	> 100	> 100	> 100 µM	> 100 µM	> 100 µM	> 100 µM	> 100 µM	> 100 µM	> 100 µM	> 100 µM	> 100 µM	> 100 µM							
c1ccc(-c2sc(-c3ccccc3)c3c2C2CCC3C2)cc1	> 100	> 100	> 100 µM	> 100 µM	> 100 µM	> 100 µM	> 100 µM	72.6 µM	> 100 µM	> 100 µM	> 100 µM	> 100 µM							
C=CCN1C(=O)/C(=C/c2ccccc2)N=C1SC1OC(COC(C)=O)C(OC(C)=O)C(OC(C)=O)C1OC(C)=O (stereo not drawn)	> 100	69.4	71.3 µM	> 100 µM	> 100 µM	47.7 µM	> 100 µM	52.9 µM	71.6 µM	99.7 µM	83 µM	> 100 µM							
COc1cc(CC(C)N[C@@H](C)c2ccccc2)cc(OC)c1 (stereo partly drawn)	> 100	> 100	24.2 µM and > 100 µM	16.3 µM and > 100 µM	26 µM and > 100 µM	27.2 µM and > 100 µM	26.3 µM and > 100 µM	14.2 µM and > 100 µM	25.2 µM and > 100 µM	21 µM and > 100 µM	26 µM and > 100 µM	19.5 µM and > 100 µM	> 100	11.8 µM and > 100 µM	12.9 µM and > 100 µM	12.8 µM and > 100 µM	11.7 µM and > 100 µM	12.6 µM and > 100 µM	7.9 µM and 41.8 µM
Cc1ccc(S(=O)(=O)Nn2c(C)cc3ccc(S(=O)(=O)Nc4ccccc4[N+](=O)[O-])cc3c2=O)cc1	> 100	> 100	> 100 µM	> 100 µM	> 100 µM	> 100 µM	> 100 µM	> 100 µM	> 100 µM		> 100 µM	> 100 µM							
CC(=O)O[C@@H]1[C@@H](C)[C@]2(CC(c3ccoc3)OC2O)C2CCC3O[C@]3(C)[C@]2(C)[C@@H]1OC(C)=O (stereo partly drawn)	86.8	> 100	> 100 µM	> 100 µM	> 100 µM	> 100 µM	> 100 µM	> 100 µM	> 100 µM	> 100 µM	> 100 µM	> 100 µM							
O=C(Nc1ccc(Cl)cc1Cl)c1cc2nc3ccccc3c(=O)n2c2ccccc12	> 10	> 10		> 10 µM	> 10 µM	> 10 µM	> 10 µM	> 10 µM	> 10 µM	> 10 µM	> 10 µM	> 10 µM							
